Laboratory results as given in BigSolDB 2.1.

O=C(O)CCCCCCCCCCCC(=O)O
solubility (mole fraction)
Conditions | 283.15 K | 288.15 K | 293.15 K | 298.15 K | 303.15 K | 308.15 K | 313.15 K | 318.15 K | 323.15 K
in acetic acid | – | 0.00231 | 0.00309 | 0.00418 | 0.00656 | 0.00975 | 0.0138 | 0.0201 | 0.0253
in acetone | 0.00192 | 0.00207 | 0.00302 | 0.00409 | 0.00633 | 0.00892 | 0.0128 | 0.0166 | 0.0234
in ethanol | 0.00277 | 0.00286 | 0.00388 | 0.00441 | 0.00674 | 0.0115 | 0.0149 | 0.0207 | 0.0263
in ethyl acetate | 0.00072 | 0.00083 | 0.00111 | 0.00149 | 0.00254 | 0.00361 | 0.00524 | 0.00722 | 0.011
in methanol | 0.00291 | 0.00315 | 0.00388 | 0.00449 | 0.00541 | 0.00845 | 0.0106 | 0.0126 | 0.015
